Test results: patent US11566007B2, “Ras inhibitors” (Revolution Medicines, Inc., priority 2019, dated 2023)

Columns and labels:
[1] = system: NCI-H358 cells (K-Ras G12C); assay: Potency assay: pERK in NCI-H358 cells; format: cell-based, human; conditions: Homo sapiens, NCI-H358; H358 KRAS G12C; read-out: pERK EC50
How it was run: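 pERK decrease read by AlphaLISA SureFire p-ERK1/2 or In-Cell Western after 4 h compound exposure at 37 °C, 5% CO2.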

KRAS G13D = KRAS G13D (Homo sapiens (Human), UniProt P01116+P62937, G13D); assay: Ras-Raf (BRAF RBD) disruption / FRET / MOA assay, KRAS G13D; format: biochemical; conditions: read-out: IC50* KRAS G13D FRET data
How it was run: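 A 10-point, 3-fold dilution series topping at 30 μM final was incubated 3 h at 25° C with the Ras/cyclophilin A/BRAF RBD mixture.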

Chain of KRAS G13D (P01116-2 other isoform, or with tags, fused parts or gaps G13D): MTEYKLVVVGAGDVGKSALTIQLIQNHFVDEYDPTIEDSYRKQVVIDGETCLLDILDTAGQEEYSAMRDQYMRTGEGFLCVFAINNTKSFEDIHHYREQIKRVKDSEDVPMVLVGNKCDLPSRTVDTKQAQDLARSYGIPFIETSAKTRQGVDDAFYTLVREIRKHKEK
Chain of KRAS G13D (P62937 whole entry): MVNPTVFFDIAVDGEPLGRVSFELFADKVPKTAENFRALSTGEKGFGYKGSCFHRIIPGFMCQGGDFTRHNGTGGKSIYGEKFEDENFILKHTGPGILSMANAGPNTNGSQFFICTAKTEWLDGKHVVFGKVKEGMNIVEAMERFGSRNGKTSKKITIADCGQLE

Structure (SMILES)	EC50 [1] [nM]	IC50 (KRAS G13D) [nM]
C=CC(=O)N1CCO[C@H]2CN(C(=O)N(C)[C@H](C(=O)N[C@H]3Cc4cccc(n4)-c4ccc5c(c4)c(c(-c4cccnc4[C@H](C)OC)n5CC(F)(F)F)CC(C)(C)COC(=O)[C@@H]4CCCN(N4)C3=O)C(C)C)C[C@H]21 (atropisomer, axis not shown) [Example A595]	< 5000	1000 to 10000
C=CC(=O)N1CCO[C@H]2CN(C(=O)N(C)[C@H](C(=O)N[C@H]3Cc4cccc(n4)-c4ccc5c(c4)c(c(-c4cccnc4[C@H](C)OC)n5CC)CC(C)(C)COC(=O)[C@@H]4CCCN(N4)C3=O)C(C)C)C[C@H]21 (atropisomer, axis not shown) [Example A597]	< 5000	1000 to 10000
C=CC(=O)N1CCO[C@H]2CN(C(=O)N(C)[C@H](C(=O)N[C@H]3Cc4cccc(c4)-c4ccc5c(c4)c(c(-c4cccnc4[C@H](C)OC)n5CC)CC(C)(C)COC(=O)[C@@H]4CCCN(N4)C3=O)C(C)C)C[C@H]21 (atropisomer, axis not shown) [Example A610]	< 5000	1000 to 10000
C=CC(=O)N1CC2(CCN2C(=O)N(C)[C@H](C(=O)N[C@H]2Cc3nc(n(C)n3)-c3ccc4c(c3)c(c(-c3cccnc3[C@H](C)OC)n4CC)CC(C)(C)COC(=O)[C@@H]3CCCN(N3)C2=O)C(C)C)C1 (atropisomer, axis not shown) [Example A612]	< 5000	100 to 1000
CCn1c(-c2cccnc2[C@H](C)OC)c2c3cc(ccc31)N1CCC[C@@H](C[C@H](NC(=O)[C@H](C(C)C)N(C)C(=O)C3(F)CCN(C(=O)C#CC(C)(C)N(C)C)CC3)C(=O)N3CCC[C@H](N3)C(=O)OCC(C)(C)C2)C1 (atropisomer, axis not shown) [Example A615]	< 5000	> 10000
C=CC(=O)N(C)CCC1CCN(C(=O)N(C)[C@H](C(=O)N[C@H]2Cc3nc(cs3)-c3ccc4c(c3)c(c(-c3cccnc3[C@H](C)OC)n4CC)CC(C)(C)COC(=O)[C@@H]3CCCN(N3)C2=O)C(C)C)CC1 (atropisomer, axis not shown) [Example A621]	< 5000	100 to 1000
CCn1c(-c2cccnc2[C@H](C)OC)c2c3cc(ccc31)-c1csc(n1)C[C@H](NC(=O)[C@H](C(C)C)N(C)C(=O)N1C[C@H]3CN(C(=O)C#CC(C)(C)N(C)C)CC[C@H]31)C(=O)N1CCC[C@H](N1)C(=O)OCC(C)(C)C2 (atropisomer, axis not shown) [Example A624]	< 5000	100 to 1000
CCn1c(-c2cccnc2[C@H](C)OC)c2c3cc(ccc31)-c1csc(n1)C[C@H](NC(=O)[C@H](F)COC1CN(C(=O)C#CC(C)(C)N(C)C)C1)C(=O)N1CCC[C@H](N1)C(=O)OCC(C)(C)C2 (atropisomer, axis not shown) [Example A627]	< 5000	> 10000
C=C(C)C(=O)N1CC2(CCN(C(=O)N(C)[C@H](C(=O)N[C@H]3Cc4nc(cs4)-c4ccc5c(c4)c(c(-c4cccnc4[C@H](C)OC)n5CC)CC(C)(C)COC(=O)[C@@H]4CCCN(N4)C3=O)C(C)C)CC2)C1 (atropisomer, axis not shown) [Example A651]	< 5000	100 to 1000
C=CC(=O)N(C)C[C@H]1CCN(C(=O)N(C)[C@H](C(=O)N[C@H]2Cc3nc(cs3)-c3ccc4c(c3)c(c(-c3cccnc3[C@H](C)OC)n4CC)CC(C)(C)COC(=O)[C@@H]3CCCN(N3)C2=O)C(C)C)C1 (atropisomer, axis not shown) [Example A653]	< 5000	100 to 1000
C=CC(=O)N(C)C[C@@H]1CCN(C(=O)N(C)[C@H](C(=O)N[C@H]2Cc3nc(cs3)-c3ccc4c(c3)c(c(-c3cccnc3[C@H](C)OC)n4CC)CC(C)(C)COC(=O)[C@@H]3CCCN(N3)C2=O)C(C)C)C1 (atropisomer, axis not shown) [Example A654]	< 5000	100 to 1000
CCn1c(-c2cccnc2[C@H](C)OC)c2c3cc(ccc31)-c1cccc(c1)C[C@H](NC(=O)[C@@H](COC1CN(C(=O)C#CC(C)(C)N(C)CCO)C1)C(C)C)C(=O)N1CCC[C@H](N1)C(=O)OCC(C)(C)C2 (atropisomer, axis not shown) [Example A657]	< 5000	> 10000
CCn1c(-c2cccnc2[C@H](C)OC)c2c3cc(ccc31)-c1csc(n1)C[C@H](NC(=O)[C@@H](COC1CN(C(=O)C#CC(C)(C)N(C)C)C1)OC)C(=O)N1CCC[C@H](N1)C(=O)OCC(C)(C)C2 (atropisomer, axis not shown) [Example A660]	< 5000	1000 to 10000
C=CC(=O)N1CC[C@@]2(CCN2C(=O)N(C)[C@H](C(=O)N[C@H]2Cc3nc(cs3)-c3ccc4c(c3)c(c(-c3cccnc3[C@H](C)OC)n4CC)CC(C)(C)COC(=O)[C@@H]3CCCN(N3)C2=O)C(C)C)C1 (atropisomer, axis not shown) [Example A661]	< 5000	100 to 1000
CCn1c(-c2cccnc2[C@H](C)OC)c2c3cc(ccc31)C1=CCCN(C1)C[C@H](NC(=O)[C@@H](COC1CN(C(=O)C#CC(C)(C)N(C)C)C1)C(C)C)C(=O)N1CCC[C@H](N1)C(=O)OCC(C)(C)C2 (atropisomer, axis not shown) [Example A663, (2R)-2-(((1-(4-(dimethylamino)-4-methylpent-2-ynoyl)405yridine405-3-yl)oxy)methyl)-N-((6^3S,4S)-1^1-ethyl-1^2-(2-((S)-1-methoxyethyl)405yridine-3-yl)-10,10-dimethyl-5,7-dioxo-2^1,2^2,2^3,2^6,6^1,6^2,6^3,6^4,6^5,6^6-decahydro-1^1H-8-oxa-1(5,3)-indola-6(1,3)-pyridazina-2(5,1)-pyridinacycloundecaphane-4-yl)-3-methylbutanamide]	< 5000	> 10000
CCn1c(-c2cccnc2[C@H](C)OC)c2c3cc(ccc31)-c1csc(n1)C[C@H](NC(=O)[C@H](C(C)C)N(C)C(=O)N1CCN(C(=O)/C=C/CN3CCOCC3)C3(CC3)C1)C(=O)N1CCC[C@H](N1)C(=O)OCC(C)(C)C2 (atropisomer, axis not shown) [Example A665]	< 5000	100 to 1000
CCn1c(-c2cccnc2[C@H](C)OC)c2c3cc(ccc31)-c1csc(n1)C[C@H](NC(=O)[C@H](C(C)C)N(C)C(=O)N1CCC3(CC1)CN(C(=O)/C=C/CN1CCOCC1)C3)C(=O)N1CCC[C@H](N1)C(=O)OCC(C)(C)C2 (atropisomer, axis not shown) [Example A669]	< 5000	100 to 1000
CCn1c(-c2cccnc2[C@H](C)OC)c2c3cc(ccc31)-c1csc(n1)C[C@H](NC(=O)[C@H](C(C)C)N(C)C(=O)N1CCC3(CC1)CN(C(=O)/C=C/CN1CCCCC1)C3)C(=O)N1CCC[C@H](N1)C(=O)OCC(C)(C)C2 (atropisomer, axis not shown) [Example A670]	< 5000	100 to 1000
C/C=C/C(=O)N1CC2(CCN(C(=O)N(C)[C@H](C(=O)N[C@H]3Cc4nc(cs4)-c4ccc5c(c4)c(c(-c4cccnc4[C@H](C)OC)n5CC)CC(C)(C)COC(=O)[C@@H]4CCCN(N4)C3=O)C(C)C)CC2)C1 (atropisomer, axis not shown) [Example A671]	< 5000	100 to 1000
CCn1c(-c2cccnc2[C@H](C)OC)c2c3cc(ccc31)-c1nc(co1)C[C@H](NC(=O)[C@@H](COC1CN(C(=O)C#CC(C)(C)N(C)C)C1)C(C)C)C(=O)N1CCC[C@H](N1)C(=O)OCC(C)(C)C2 (atropisomer, axis not shown) [Example A675, (2R)-2-(((1-(4-(dimethylamino)-4-methylpent-2-ynoyl)azetidin-3-yl)oxy)methyl)-N-((6^3S,4S,Z)-1^1-ethyl-1^2-(2-((S)-1-methoxyethyl)pyridin-3-yl)-10,10-dimethyl-5,7-dioxo-6^1,6^2,6^3,6^4,6^5,6^6-hexahydro-1^1H-8-oxa-2(2,4)-oxazola-1(5,3)-indola-6(1,3)-pyridazinacycloundecaphane-4-yl)-3-methylbutanamide]	< 5000	> 10000
C=CC(=O)N1CCN(C(=O)N(C)[C@H](C(=O)N[C@H]2Cc3nc(cs3)-c3ccc4c(c3)c(c(-c3cccnc3[C@H](C)OC)n4CC(F)(F)F)CC(C)(C)COC(=O)[C@@H]3CCCN(N3)C2=O)C(C)C)CC12CC2 (atropisomer, axis not shown) [Example A679]	< 5000	100 to 1000
C=C(OC)C(=O)N1CC2(CCN(C(=O)N(C)[C@H](C(=O)N[C@H]3Cc4nc(cs4)-c4ccc5c(c4)c(c(-c4cccnc4[C@H](C)OC)n5CC)CC(C)(C)COC(=O)[C@@H]4CCCN(N4)C3=O)C(C)C)CC2)C1 (atropisomer, axis not shown) [Example A681]	< 5000	100 to 1000
C=C(F)C(=O)N1CC2(CCN(C(=O)N(C)[C@H](C(=O)N[C@H]3Cc4nc(cs4)-c4ccc5c(c4)c(c(-c4cccnc4[C@H](C)OC)n5CC)CC(C)(C)COC(=O)[C@@H]4CCCN(N4)C3=O)C(C)C)CC2)C1 (atropisomer, axis not shown) [Example A682]	< 5000	100 to 1000
C=CC(=O)N1CC2(CCN2C(=O)N(C)[C@H](C(=O)N[C@H]2Cc3cccc(c3)-c3ccc4c(c3)c(c(-c3cccnc3[C@H](C)OC)n4CC)CC(C)(C)COC(=O)[C@@H]3CCCN(N3)C2=O)C(C)C)C1 (atropisomer, axis not shown) [Example A684]	< 5000	100 to 1000
C=CC(=O)N1C[C@H]2CN(C(=O)N(C)[C@H](C(=O)N[C@H]3Cc4nc(cs4)-c4ccc5c(c4)c(c(-c4cccnc4[C@H](C)OC)n5CC)CC(C)(C)COC(=O)[C@@H]4CCCN(N4)C3=O)C(C)C)[C@H]2C1 (atropisomer, axis not shown) [Example A686]	< 5000	100 to 1000
C=CC(=O)N1CC[C@H]2[C@@H](C1)CN2C(=O)N(C)[C@H](C(=O)N[C@H]1Cc2nc(cs2)-c2ccc3c(c2)c(c(-c2cccnc2[C@H](C)OC)n3CC)CC(C)(C)COC(=O)[C@@H]2CCCN(N2)C1=O)C(C)C (atropisomer, axis not shown) [Example A687]	< 5000	100 to 1000
